Test results: patent US7439366B2, “Phenacylamine derivatives, process for their production and pesticides containing them” (Ishihara Sangyo Kaisha Ltd., priority 2000, dated 2008)

test system: southern root-knot nematode (Meloidgyne incognita); test: Test on southern root-knot nematode (soil treatment, tomato seedling, root knot index); assay type: in vivo; parameters: key: 0: No knot was formed; 1: Knots were formed to a slight degree; 2: Knots were formed to a moderate degree; 3: Knots were formed to a heavy degree; 4: Knots were formed to the heaviest degree; conditions: 7 ml of 1600 ppm chemical solution mixed into 300 ml contaminated soil; tomato seedling in 2-leaf stage; three to four weeks after transplantation
Method: TEST EXAMPLE 1 Test on Southern Root-knot Nematode (Meloidgyne incognita) To 300 ml of the soil contaminated by southern root-knot nematode, 7 ml of a chemical solution having the concentration of the compound of the present invention adjusted to be 1600 ppm, was poured, followed by mixing so that the compound was uniformly dispersed. The treated soil was put into a pot (diameter: 9 cm, height: 8 cm), and then a tomato seedling in 2-leaf stage was transplanted and placed in a greenhouse. After three to four weeks from the transplantation of the tomato, the root knot index was determined based on the following standards. [table]

| Compound | root knot index |
| --- | --- |
| CCC(C)(NC(=O)c1ccccc1F)C(=O)c1ccc(Cl)cc1 (racemic) [1-51] | 1 |
| CCC(C)(NC(=O)c1c(F)cccc1F)C(=O)c1ccc(Cl)cc1 (racemic) [1-151] | 1 |
| CC(C)(NC(=O)c1ccccc1F)C(=O)c1ccccc1 [1-1] | 1 |
| CC(C)(NC(=O)c1c(F)cccc1F)C(=O)c1ccccc1 [1-4] | 1 |
| CC(C)(NC(=O)c1ccccc1Br)C(=O)c1ccccc1 [1-17] | 1 |
| Cc1ccccc1C(=O)NC(C)(C)C(=O)c1ccccc1 [1-18] | 1 |
| Cc1ccc(C(=O)NC(C)(C)C(=O)c2ccccc2)cc1 [1-19] | 1 |
| CC(C)(NC(=O)c1ccccc1C(F)(F)F)C(=O)c1ccccc1 [1-24] | 1 |
| CC(C)(NC(=O)c1ccc(C(F)(F)F)cc1)C(=O)c1ccccc1 [1-28] | 1 |
| CSc1ccccc1C(=O)NC(C)(C)C(=O)c1ccccc1 [1-31] | 1 |
| CC(C)(NC(=O)c1ccccc1[N+](=O)[O-])C(=O)c1ccccc1 [1-38] | 1 |
| CC(C)(NC(=O)c1ccccc1)C(=O)c1ccc(Cl)cc1 [1-49] | 1 |
| CC(C)(NC(=O)c1ccccc1F)C(=O)c1ccc(Cl)cc1 [1-50] | 1 |
| CC(C)(NC(=O)c1ccccc1Br)C(=O)c1ccc(Cl)cc1 [1-64] | 1 |
| Cc1ccccc1C(=O)NC(C)(C)C(=O)c1ccc(Cl)cc1 [1-65] | 1 |
| CC(C)(NC(=O)c1ccccc1C(F)(F)F)C(=O)c1ccc(Cl)cc1 [1-70] | 1 |
| CC(C)(NC(=O)c1ccccc1F)C(=O)c1ccc(Cl)c(Cl)c1 [1-77] | 1 |
| CCc1ccc(C(=O)C(C)(C)NC(=O)c2ccccc2Cl)cc1 [1-83] | 1 |
| COc1ccc(C(=O)C(C)(C)NC(=O)c2ccccc2Cl)cc1 [1-93] | 1 |
| CC(C)(NC(=O)c1ccccc1Cl)C(=O)c1ccc(OC(F)F)cc1 [1-95] | 1 |
| CC(C)(NC(=O)c1ccc(F)cc1F)C(=O)c1ccccc1 [1-125] | 1 |
| CC(C)(NC(=O)c1c(F)cccc1F)C(=O)c1cccc(F)c1 [1-126] | 1 |
| CC(C)(NC(=O)c1cccc(F)c1F)C(=O)c1ccc(F)cc1 [1-127] | 1 |

| Compound | root knot index |
| --- | --- |
| CC(C)(NC(=O)c1c(F)cccc1F)C(=O)c1ccc(F)cc1 [1-128] | 1 |
| CC(C)(NC(=O)c1ccccc1F)C(=O)c1ccc(F)c(F)c1 [1-130] | 1 |
| CC(C)(NC(=O)c1ccccc1Cl)C(=O)c1ccc(F)c(F)c1 [1-131] | 1 |
| CC(C)(NC(=O)c1ccccc1C(F)(F)F)C(=O)c1ccc(F)c(F)c1 [1-132] | 1 |
| CC(C)(NC(=O)c1c(F)cccc1F)C(=O)c1ccc(F)c(F)c1 [1-133] | 1 |
| CC(C)(NC(=O)c1c(F)cccc1F)C(=O)c1ccccc1Cl [1-134] | 1 |
| CC(C)(NC(=O)c1c(F)cccc1F)C(=O)c1cccc(Cl)c1 [1-135] | 1 |
| CC(C)(NC(=O)c1ccccc1[N+](=O)[O-])C(=O)c1ccc(Cl)cc1 [1-136] | 1 |
| CC(C)(NC(=O)c1ccc(F)cc1Cl)C(=O)c1ccc(Cl)cc1 [1-138] | 1 |
| CC(C)(NC(=O)c1cccc(F)c1F)C(=O)c1ccc(Cl)cc1 [1-139] | 1 |
| CC(C)(NC(=O)c1ccc(F)cc1F)C(=O)c1ccc(Cl)cc1 [1-140] | 1 |
| CC(C)(NC(=O)c1cc(F)ccc1F)C(=O)c1ccc(Cl)cc1 [1-141] | 1 |
| CC(C)(NC(=O)c1c(F)cccc1Cl)C(=O)c1ccc(Cl)cc1 [1-142] | 1 |
| CC(C)(NC(=O)c1c(F)cccc1F)C(=O)c1ccc(Cl)cc1Cl [1-143] | 1 |
| CC(C)(NC(=O)c1c(F)cccc1F)C(=O)c1ccc(Cl)c(Cl)c1 [1-147] | 1 |
| CC(C)(NC(=O)c1ccccc1Cl)C(=O)c1ccc(Br)cc1 [1-155] | 1 |
| CC(C)(NC(=O)c1c(F)cccc1F)C(=O)c1ccc(Br)cc1 [1-157] | 1 |
| CC(C)(NC(=O)c1ccccc1F)C(=O)c1ccc(Br)cc1 [1-158] | 1 |
| CC(C)(NC(=O)c1cccc(F)c1F)C(=O)c1ccc(Br)cc1 [1-159] | 1 |
| CC(C)(NC(=O)c1ccccc1F)C(=O)c1ccc(I)cc1 [1-160] | 1 |
| CC(C)(NC(=O)c1ccccc1C(F)(F)F)C(=O)c1ccc(I)cc1 [1-161] | 1 |
| CC(C)(NC(=O)c1c(F)cccc1F)C(=O)c1ccc(I)cc1 [1-162] | 1 |
| Cc1ccc(C(=O)C(C)(C)NC(=O)c2c(F)cccc2F)cc1 [1-163] | 1 |

| Compound | root knot index |
| --- | --- |
| CCc1ccc(C(=O)C(C)(C)NC(=O)c2c(F)cccc2F)cc1 [1-164] | 1 |
| CC(C)(NC(=O)c1c(F)cccc1F)C(=O)c1ccc(C(F)(F)F)cc1 [1-166] | 1 |
| CC(C)(NC(=O)c1ccccc1F)C(=O)c1ccc(C(F)(F)F)cc1 [1-167] | 1 |
| COc1ccc(C(=O)C(C)(C)NC(=O)c2c(F)cccc2F)cc1 [1-168] | 1 |
| CCOc1ccc(C(=O)C(C)(C)NC(=O)c2c(F)cccc2F)cc1 [1-169] | 1 |
| CC(C)(NC(=O)c1ccccc1F)C(=O)c1ccc(OC(F)F)cc1 [1-171] | 1 |
| CC(C)(NC(=O)c1c(F)cccc1F)C(=O)c1ccc(OC(F)F)cc1 [1-172] | 1 |
| CC(C)(NC(=O)c1ccccc1F)C(=O)c1ccc(OCC(F)(F)F)cc1 [1-173] | 1 |
| CC(C)(NC(=O)c1c(F)cccc1F)C(=O)c1ccc(OCC(F)(F)F)cc1 [1-174] | 1 |
| CC(C)(NC(=O)c1ccccc1F)C(=O)c1ccc(OC(F)(F)C(F)F)cc1 [1-175] | 1 |
| CC(C)(NC(=O)c1ccccc1Cl)C(=O)c1ccc(OC(F)(F)C(F)F)cc1 [1-176] | 1 |
| CC(C)(NC(=O)c1c(F)cccc1F)C(=O)c1ccc(OC(F)(F)C(F)F)cc1 [1-177] | 1 |
| CC(C)(NC(=O)c1ccccc1C(F)(F)F)C(=O)c1ccc(OC(F)(F)C(F)F)cc1 [1-178] | 1 |
| CC(C)(NC(=O)c1ccccc1F)C(=O)c1ccc(OCC(F)(F)C(F)(F)F)cc1 [1-179] | 1 |
| CC(C)(NC(=O)c1c(F)cccc1F)C(=O)c1ccc(OCC(F)(F)C(F)(F)F)cc1 [1-180] | 1 |
| CC(C)(NC(=O)c1c(F)cccc1F)C(=O)c1ccc(Oc2ccc(C(F)(F)F)cn2)cc1 [1-211] | 1 |
| CSc1ccc(C(=O)C(C)(C)NC(=O)c2c(F)cccc2F)cc1 [1-212] | 1 |
| CC(C)(NC(=O)c1c(F)cccc1F)C(=O)c1ccc(S(C)(=O)=O)cc1 [1-213] | 1 |
| CC(C)(NC(=O)c1cccnc1Cl)C(=O)c1ccccc1 [2-2] | 1 |
| CC(C)(NC(=O)c1ccccc1Cl)C(=O)c1ccccc1 [Compound No. 1-5] | 1 |
| CN(C(=O)c1ccccc1C(F)(F)F)C(C)(C)C(=O)c1ccccc1 [Compound No. 1-27, N-methyl-N-[(1,1-dimethyl)phenacyl]-2-trifluoromethylbenzamide] | 1 |
| CC(C)(NC(=O)c1ccccc1Cl)C(=O)c1ccc(Cl)cc1 [Compound No. 1-54, 2-chloro-N-[(4′-chloro-1,1-dimethyl)phenacyl]benzamide] | 1 |
| CCc1ccc(C(=O)C(C)(C)NC(=O)c2cc(Cl)cc(Cl)c2)cc1 [Compound No. 1-84, 3,5-dichloro-N-[(4′-ethyl-1,1-dimethyl)phenacyl]benzamide] | 1 |
